In brackets after ≈: the same amount, converted by molar mass. Several values for one entry are separate records, joined by “and”; a condition that tells them apart may be missing. Equal entries are not always repeated. Where two headings read alike, the source gives them in different places.
Columns and labels:
DLD1-BRCA2−/− cells = assay: Cell proliferation assay in DLD1-BRCA2−/− cell lines (CellTiter-Glo, 7 days); format: cell-based
Outline: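 Cells in RPMI 1640 + 10% FBS seeded overnight, then exposed to compound or vehicle for 7 days at 37 °C, 5% CO2. Viability read on day 8 by CellTiter-Glo luminescence; % inhibition fitted to a four-parameter logistic curve for IC50.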

[1] = Caco2 (A-B/B-A) permeability; format: in vitro ADME; conditions: human; for Papp A→B at 120 min, 5 μM: Caco-2, pH 7.4, apical-to-basolateral, read-out: Caco2 A-B apparent permeability (Papp); for Papp A→B at 120 min, 5 μM / Papp B→A at 120 min, 5 μM: HBSS pH 7.4, 120 min, 37° C.; for Papp B→A at 120 min, 5 μM: Caco-2, pH 7.4, basolateral-to-apical, read-out: Caco2 B-A apparent permeability (Papp); for efflux ratio at 120 min, 5 μM: Caco-2, pH 7.4, PappB-A/PappA-B, read-out: Caco2 efflux ratio (ER)
Outline: (§1)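 Bidirectional A-B and B-A transport of 5 μM compound across Caco-2 monolayers in HBSS (10 mM HEPES, pH 7.4), duplicate, ~37° C for 120 min. Donor and receiver levels measured by UPLC-MS/MS give Papp. Efflux ratio = PappB-A/PappA-B, with monolayer integrity checked by Lucifer yellow.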

Caco-2 cell monolayers = assay: Caco2 (A-B/B-A) permeability; format: in vitro ADME; conditions: for Caco2 efflux ratio (ER): PappB-A/PappA-B; for Caco2 A-B apparent permeability (Papp): apical-to-basolateral; for Caco2 A-B apparent permeability (Papp) / Caco2 B-A apparent permeability (Papp): 5 μM, HBSS pH 7.4, 120 min, 37° C.; for Caco2 B-A apparent permeability (Papp): basolateral-to-apical
Outline: as §1

[2] = target: Recombinant full length PARP2 (Homo sapiens (Human), UniProt Q9UGN5); assay: FP assay PARP2 (fluorescence anisotropy probe displacement); format: binding; conditions: 60 nM PARP2, 8 nM fluorescent probe, 4 h, room temperature
Recombinant full length PARP2, sequence (Q9UGN5 whole entry): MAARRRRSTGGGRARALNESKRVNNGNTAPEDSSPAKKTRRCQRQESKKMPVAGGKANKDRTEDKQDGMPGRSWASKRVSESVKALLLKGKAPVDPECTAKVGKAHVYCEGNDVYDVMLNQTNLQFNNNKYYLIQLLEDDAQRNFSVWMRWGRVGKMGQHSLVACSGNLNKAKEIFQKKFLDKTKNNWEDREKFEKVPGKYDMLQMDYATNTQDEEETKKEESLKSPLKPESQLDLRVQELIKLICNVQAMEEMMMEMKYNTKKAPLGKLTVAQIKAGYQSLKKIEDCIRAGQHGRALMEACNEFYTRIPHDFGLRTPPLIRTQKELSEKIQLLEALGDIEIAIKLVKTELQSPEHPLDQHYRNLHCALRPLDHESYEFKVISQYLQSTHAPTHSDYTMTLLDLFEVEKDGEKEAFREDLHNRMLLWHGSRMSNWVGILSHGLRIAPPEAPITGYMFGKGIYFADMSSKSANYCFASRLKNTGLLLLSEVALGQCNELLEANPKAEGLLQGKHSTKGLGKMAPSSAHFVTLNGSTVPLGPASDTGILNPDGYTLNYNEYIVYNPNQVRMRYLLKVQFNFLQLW
Protocol: (§2) FP experiments were carried out at room temperature using no-binding black 384-well microplates. Recombinant full length PARP1 and PARP2 proteins produced in house were diluted to 20 nM and 60 nM, respectively, with assay buffer (50 mM Tris pH 8, 0.001% Triton X100, 10 mM MgCl2, and 150 mM NaCl) and incubated for 4 h with an equivalent volume of the 8 nM fluorescent probe diluted with assay buffer. Fluorescence anisotropy of the probe when bound to the proteins was measured in the presence of test compounds or solvent control and the effect on anisotropy determined. Polarization values were read using an Envision plate reader using excitation and emission wavelengths of 590 and 630 nm, respectively. All FP values are expressed as mP units. Inhibition ratio was calculated using readout (mP) following the equation as below: […]
(§3) % inhibition values for different test compound concentrations were calculated and fitted to a four parameter logistic plot in order to determine the IC50 value using XLfit.

[3] = target: Recombinant full length PARP1 (Homo sapiens (Human), UniProt P09874); assay: FP assay PARP1 (fluorescence anisotropy probe displacement); format: binding; conditions: 20 nM PARP1, 8 nM fluorescent probe, 4 h, room temperature
Recombinant full length PARP1, sequence (P09874 whole entry): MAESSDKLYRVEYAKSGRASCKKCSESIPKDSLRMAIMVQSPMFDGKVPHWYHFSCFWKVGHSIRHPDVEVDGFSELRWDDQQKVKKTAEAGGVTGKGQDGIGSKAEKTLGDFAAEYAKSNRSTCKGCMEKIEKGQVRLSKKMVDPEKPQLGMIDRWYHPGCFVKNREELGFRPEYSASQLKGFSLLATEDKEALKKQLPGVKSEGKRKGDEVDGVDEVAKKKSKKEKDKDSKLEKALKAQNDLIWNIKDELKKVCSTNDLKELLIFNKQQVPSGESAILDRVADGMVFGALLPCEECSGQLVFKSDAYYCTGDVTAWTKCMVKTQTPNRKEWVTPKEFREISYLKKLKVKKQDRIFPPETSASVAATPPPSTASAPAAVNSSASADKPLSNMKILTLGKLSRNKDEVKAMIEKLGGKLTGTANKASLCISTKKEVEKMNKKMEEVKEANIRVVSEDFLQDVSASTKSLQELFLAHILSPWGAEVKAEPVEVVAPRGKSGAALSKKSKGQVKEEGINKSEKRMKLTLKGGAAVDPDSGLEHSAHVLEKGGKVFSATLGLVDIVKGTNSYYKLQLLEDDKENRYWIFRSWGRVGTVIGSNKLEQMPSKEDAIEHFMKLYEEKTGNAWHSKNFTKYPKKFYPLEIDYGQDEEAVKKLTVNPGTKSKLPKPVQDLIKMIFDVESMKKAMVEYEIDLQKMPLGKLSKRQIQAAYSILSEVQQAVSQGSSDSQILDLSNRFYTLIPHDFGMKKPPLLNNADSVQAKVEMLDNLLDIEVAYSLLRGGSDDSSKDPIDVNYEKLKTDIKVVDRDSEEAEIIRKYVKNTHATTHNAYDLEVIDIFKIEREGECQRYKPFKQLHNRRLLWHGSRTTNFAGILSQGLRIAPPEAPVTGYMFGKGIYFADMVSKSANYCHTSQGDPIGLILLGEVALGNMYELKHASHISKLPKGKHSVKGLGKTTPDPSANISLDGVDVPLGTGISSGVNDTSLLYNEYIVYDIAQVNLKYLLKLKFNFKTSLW
Protocol: as §2, §3

[4] = Kinetic solubility, PBS, pH7.4; format: physicochemical; conditions: 300 μM test compound
Protocol: After incubation, the samples were filtered, and the filtrate was diluted by 1000-fold with water:acetonitrile 1:1 (v/v) for analysis by UPLC MS/MS to determine the concentration of test compound. The solubility value was calculated by quantification against a standard of known concentration.

[5] = Thermodynamic solubility, FaSSiF; format: physicochemical; conditions: for solubility thermodynamic at 24 h: FaSSIF, 25 °C, thermodynamic from solid
Protocol: All incubations were performed in duplicate. Test compound or the control compound diclofenac sodium (1.0 mg) were placed into 1.5 mL glass vials. FaSSIF (1000 μL) was added into the vials. The samples were transferred to Eppendorf Thermomixer Comfort plate shaker and shaken at 25° C., 1100 rpm for 24 hours. The samples were then filtered. The filtrate was diluted by 1000-fold with water:acetonitrile 1:1 (v/v) for analysis by UPLC MS/MS to determine the concentration of test compound. The solubility value was calculated by quantification against a standard of known concentration.

[6] = PBS pH 7.4, 25 °C, pH 7.4, aqueous buffer, kinetic from dmso stock

CCc1cc2cnc([C@@H](C)N3CC(Oc4ccc(C(=O)NC)nc4)C3)cc2[nH]c1=O (single isomer, unassigned) [Compound 47, (enantiomer 1 or 2)-5-((1-(1-(3-ethyl-2-oxo-1,2-dihydro-1,6-naphthyridin-7-yl)ethyl)azetidin-3-yl)oxy)-N-methylpicolinamide]
IC50 (DLD1-BRCA2−/− cells; Homo sapiens, DLD-1, 168 h): 26.8 nM | Papp A→B at 120 min, 5 μM [1]: 4.82 ×10⁻⁶ cm/s | Papp B→A at 120 min, 5 μM [1]: 35.6 ×10⁻⁶ cm/s | Caco2 efflux ratio (ER) (Caco-2 cell monolayers): (ER = 7.38) | IC50 [2]: > 10000 nM | IC50 [3]: 5.8 nM

CCc1cc2cnc([C@@H](C)N3CC(Oc4ccc(C(=O)NC)nc4)C3)cc2[nH]c1=O (single isomer, unassigned) [Compound 48, (enantiomer 1 or 2)-5-((1-(1-(3-ethyl-2-oxo-1,2-dihydro-1,6-naphthyridin-7-yl)ethyl)azetidin-3-yl)oxy)-N-methylpicolinamide]
IC50 (DLD1-BRCA2−/− cells): 21.9 nM | Caco2 efflux ratio (ER) (Caco-2 cell monolayers): (ER = 2.51) | Caco2 A-B apparent permeability (Papp) (Caco-2 cell monolayers): 8.96 10*−6 cm/s | Caco2 B-A apparent permeability (Papp) (Caco-2 cell monolayers): 22.47 10*−6 cm/s | IC50 [2]: > 10000 nM | IC50 [3]: 5.1 nM

CCc1nc2ccc([C@H](C)N3CC(Oc4ccc(C(=O)NC)nc4)C3)cc2[nH]c1=O (single isomer, unassigned) [Compound 53, (enantiomer 1 or 2)-5-((1-(1-(2-ethyl-3-oxo-3,4-dihydroquinoxalin-6-yl)ethyl)azetidin-3-yl)oxy)-N-methylpicolinamide]
IC50 (DLD1-BRCA2−/− cells): 12.1 nM | Caco2 efflux ratio (ER) (Caco-2 cell monolayers): (ER = 2.51) | Caco2 A-B apparent permeability (Papp) (Caco-2 cell monolayers): 13.2 10*−6 cm/s | Caco2 B-A apparent permeability (Papp) (Caco-2 cell monolayers): 33.19 10*−6 cm/s | IC50 [2]: > 10000 nM | IC50 [3]: 24.2 nM

CCc1cc2ncc([C@@H](C)N3CC(Oc4ccc(C(=O)NC)nc4F)C3)cc2[nH]c1=O (single isomer, unassigned; enantiomer 2) [Compound 46, (enantiomer 2)-5-((1-(1-(7-ethyl-6-oxo-5,6-dihydro-1,5-naphthyridin-3-yl)ethyl)azetidin-3-yl)oxy)-6-fluoro-N-methylpicolinamide]
IC50 (DLD1-BRCA2−/− cells): 6.6 nM | Caco2 efflux ratio (ER) (Caco-2 cell monolayers): (ER = 8.07) | Caco2 A-B apparent permeability (Papp) (Caco-2 cell monolayers): 5.51 10*−6 cm/s | Caco2 B-A apparent permeability (Papp) (Caco-2 cell monolayers): 44.49 10*−6 cm/s | IC50 [2]: 2580 nM | IC50 [3]: 4.3 nM

CCc1cc2cnc([C@H](C)N3CC(Oc4ccc(C(=O)NC)nc4F)C3)cc2[nH]c1=O (single isomer, unassigned; enantiomer 2) [Compound 50, (enantiomer 2)-5-((1-(1-(3-ethyl-2-oxo-1,2-dihydro-1,6-naphthyridin-7-yl)ethyl)azetidin-3-yl)oxy)-6-fluoro-N-methylpicolinamide]
IC50 (DLD1-BRCA2−/− cells): 7.2 nM | Caco2 efflux ratio (ER) (Caco-2 cell monolayers): (ER = 8.36) | Caco2 A-B apparent permeability (Papp) (Caco-2 cell monolayers): 3.84 10*−6 cm/s | Caco2 B-A apparent permeability (Papp) (Caco-2 cell monolayers): 32.1 10*−6 cm/s | IC50 [2]: > 10000 nM | IC50 [3]: 18.1 nM

CCc1cc2ncc(CN3CC(Oc4ccc(C(=O)NC)nc4)C3)cc2[nH]c1=O [Compound 1, 5-((1-((7-ethyl-6-oxo-5,6-dihydro-1,5-naphthyridin-3-yl)methyl)azetidin-3-yl)oxy)-N-methylpicolinamide]
IC50 (DLD1-BRCA2−/− cells; Homo sapiens, DLD-1, 168 h): 4.5 nM | Papp A→B at 120 min, 5 μM [1]: 3.86 ×10⁻⁶ cm/s | Papp B→A at 120 min, 5 μM [1]: 22.7 ×10⁻⁶ cm/s | solubility kinetic at 2 h [4, 6]: 29.4 µM (≈ 11.6 µg/mL) | solubility thermodynamic at 24 h [5]: 1.77 µg/mL (≈ 4.5 µM) | IC50 [3]: 4.8 nM

CCc1cc2ncc([C@@H](C)N3CC(Oc4ccc(C(=O)NC)nc4)C3)cc2[nH]c1=O [Compound 4, (R)-5-((1-(1-(7-ethyl-6-oxo-5,6-dihydro-1,5-naphthyridin-3-yl)ethyl)azetidin-3-yl)oxy)-N-methylpicolinamide]
IC50 (DLD1-BRCA2−/− cells; Homo sapiens, DLD-1, 168 h): 216 nM | efflux ratio at 120 min, 5 μM [1]: 7.49 | Papp A→B at 120 min, 5 μM [1]: 4.77 ×10⁻⁶ cm/s | Papp B→A at 120 min, 5 μM [1]: 35.7 ×10⁻⁶ cm/s | IC50 [2]: > 10000 nM | solubility kinetic at 2 h [4, 6]: 223 µM (≈ 90.9 µg/mL) | solubility thermodynamic at 24 h [5]: 115 µg/mL (≈ 283 µM) | IC50 [3]: 10.3 nM

CCc1cc2ncc([C@H](C)N3CC(Oc4ccc(C(=O)NC)nc4)C3)cc2[nH]c1=O [Compound 5, (S)-5-((1-(1-(7-ethyl-6-oxo-5,6-dihydro-1,5-naphthyridin-3-yl)ethyl)azetidin-3-yl)oxy)-N-methylpicolinamide]
IC50 (DLD1-BRCA2−/− cells; Homo sapiens, DLD-1, 168 h): 6.9 nM | efflux ratio at 120 min, 5 μM [1]: 9.78 | Papp A→B at 120 min, 5 μM [1]: 3.39 ×10⁻⁶ cm/s | Papp B→A at 120 min, 5 μM [1]: 33.2 ×10⁻⁶ cm/s | IC50 [2]: 3120 nM | solubility kinetic at 2 h ([4]; 25° C., read-out: Kinetic solubility, PBS, pH 7.4): 281.58 µM (≈ 115 µg/mL) | solubility kinetic at 2 h [4, 6]: 250 µM (≈ 102 µg/mL) | Thermodynamic Solubility, FaSSiF ([5]; 25° C., 24 hours): 145.89 µg/mL and 126.09 µg/mL | solubility thermodynamic at 24 h [5]: 107 µg/mL (≈ 262 µM) | IC50 [3]: 5.2 nM
